Data reported in patent publication US20090131481A1, “Transcription Factor Modulating Compounds and Methods of Use Thereof” (Paratek Pharmaceuticals, Inc., published 2009).
Like-named read-outs stand apart in the source and are kept apart here.

Assays:
[1] = biological target: LcrF (VirF) (Yersinia pestis, UniProt P28808); test: biochemical; format: binding, Y. pseudotuberculosis
[2] = biological target: T1, ExsA (Pseudomonas aeruginosa, UniProt P26993); test: Chemiluminescence-based ExsA-DNA binding assay; design: species or system P. aeruginosa
T1 construct: made in house
T1 sequence (P26993 1-278): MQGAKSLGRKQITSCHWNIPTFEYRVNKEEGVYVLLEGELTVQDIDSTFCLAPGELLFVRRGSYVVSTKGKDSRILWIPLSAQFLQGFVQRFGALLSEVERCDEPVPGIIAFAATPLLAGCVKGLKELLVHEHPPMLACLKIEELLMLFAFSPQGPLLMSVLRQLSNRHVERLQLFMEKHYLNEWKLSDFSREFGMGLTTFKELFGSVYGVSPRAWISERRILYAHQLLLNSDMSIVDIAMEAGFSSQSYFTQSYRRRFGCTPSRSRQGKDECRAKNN

[3] = biological target: T2, SlyA (Escherichia coli, UniProt P0A8W2); test: biochemical; format: binding, E. coli
T2 sequence (P0A8W2 1-144): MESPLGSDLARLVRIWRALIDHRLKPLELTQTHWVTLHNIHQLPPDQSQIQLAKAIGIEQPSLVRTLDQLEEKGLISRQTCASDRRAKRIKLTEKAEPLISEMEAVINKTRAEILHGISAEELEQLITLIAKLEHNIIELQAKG

[4] = tested on: Y. pseudotuberculosis; test: microbe, parasite or virus in culture; conditions: Yersinia pseudotuberculosis, J774, read-out: % Cytotoxicity
[5] = tested on: P. aeruginosa; test: P. aeruginosa cytotoxicity whole cell assay (J774 cells, LDH release); conditions: relative to vehicle treated cells infected with wild type P. aeruginosa
[6] = tested on: E. coli UPEC strain C189; test: Ascending pyelonephritis model of infection (Example 3); format: in vivo; conditions: female CD1 mice, oral dosing at infection and once a day for 4 days, 5-day infection
[7] = tested on: Y. pseudotuberculosis; conditions: in vivo, sc, 25 mg/kg
[8] = tested on: Y. pseudotuberculosis; conditions: in vivo, sc, 25 mg/kg; remark: listed apart in the source
[9] = biological target: T3, SoxS (Escherichia coli, UniProt P0A9E2); test: Electrophoretic mobility shift assay (EMSA) with SoxS; format: binding; conditions: 50 ug/ml compound, 5 nM SoxS
T3 sequence (P0A9E2 1-107): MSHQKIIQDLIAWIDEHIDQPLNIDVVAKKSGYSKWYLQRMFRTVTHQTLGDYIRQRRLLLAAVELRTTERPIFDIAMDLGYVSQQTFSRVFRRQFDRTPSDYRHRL

[10] = tested on: uncut plasmid DNA; test: Qualitative agarose gel DNA intercalation assay; format: binding; conditions: 100 ng uncut plasmid DNA, compared with a known DNA intercalator
[11] = biological target: T4, MarA (Escherichia coli, UniProt P0ACH5); test: Chemiluminescence-based MarA-DNA binding assay; design: species or system E. coli; conditions: Table 10
T4 sequence (P0ACH5 1-127): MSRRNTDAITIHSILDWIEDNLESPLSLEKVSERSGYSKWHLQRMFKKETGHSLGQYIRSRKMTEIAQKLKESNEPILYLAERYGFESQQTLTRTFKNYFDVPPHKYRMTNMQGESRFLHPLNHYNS

[12] = biological target: T5, Rob (Escherichia coli, UniProt P0ACI0); test: Chemiluminescence-based Rob-DNA binding assay; design: species or system E. coli; conditions: Table 10
T5 sequence (P0ACI0 1-289): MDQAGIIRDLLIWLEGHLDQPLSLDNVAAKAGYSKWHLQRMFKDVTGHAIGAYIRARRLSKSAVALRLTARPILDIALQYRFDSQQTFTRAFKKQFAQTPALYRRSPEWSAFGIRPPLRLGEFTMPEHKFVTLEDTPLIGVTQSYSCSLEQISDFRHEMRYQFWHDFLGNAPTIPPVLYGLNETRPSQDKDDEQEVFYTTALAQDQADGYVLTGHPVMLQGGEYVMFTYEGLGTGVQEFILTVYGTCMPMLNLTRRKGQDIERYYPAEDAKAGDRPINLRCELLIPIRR

[13] = biological target: T6, Rma (Salmonella typhimurium, UniProt H9L484); test: Chemiluminescence-based Rma-DNA binding assay; design: species or system S. typhimurium; conditions: Table 10
T6 construct: fused on or other part: 6-histidine tag
T6 sequence (H9L484 1-113): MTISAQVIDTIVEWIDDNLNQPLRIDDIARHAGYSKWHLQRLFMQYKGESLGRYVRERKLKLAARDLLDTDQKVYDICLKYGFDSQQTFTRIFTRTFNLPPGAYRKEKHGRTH

[14] = biological target: T3, SoxS; test: Chemiluminescence-based SoxS-DNA binding assay; design: made in house; species or system E. coli
[15] = Y. pseudotuberculosis VirF EC50
[16] = Table 11, subsequent assay, read-out: P. aeruginosa ExsA EC50
[17] = EC50 for inhibition of LcrF(VirF)-DNA binding
[18] = Table 7, cell-free system, read-out: ExsA EC50
[19] = dose response analysis (footnote c), read-out: in vitro SoxS activity: concentration necessary to inhibit DNA-protein binding by 50% (EC50)

Chain of LcrF (VirF) (P28808 whole entry, looked up): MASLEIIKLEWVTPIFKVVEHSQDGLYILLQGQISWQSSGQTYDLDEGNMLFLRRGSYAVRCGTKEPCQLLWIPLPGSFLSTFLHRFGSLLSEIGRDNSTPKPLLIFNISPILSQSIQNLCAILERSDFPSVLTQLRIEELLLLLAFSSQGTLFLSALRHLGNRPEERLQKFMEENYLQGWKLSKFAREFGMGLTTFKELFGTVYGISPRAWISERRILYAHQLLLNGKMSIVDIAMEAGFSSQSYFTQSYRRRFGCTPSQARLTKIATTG

With `CCc1cc(-c2nc3ccc([N+](=O)[O-])cc3n2O)ccc1NC(=O)/C=C/c1ccc(C)cc1` [DP] the EC50 [1, 15] was less than 5 µM, the EC50 [2, 16] was 5.1 to 15 µM and the EC50 [3] was greater than 15.1 µM. For the same molecule, the activity at 50 µg/mL [4] was less than 75% and the “Cytotoxicity at 50 μg/mL Pseudomonas” value [5] was “* (reduced P. aeruginosa cytotoxicity to 99-75% of untreated, wild type levels at 50 mg/mL)”.
`CC(=O)c1ccc(C(=O)Nc2ccc(-c3nc4ccc([N+](=O)O)cc4n3O)cc2)cc1` [F] was tested, and the “Efficacy (log10 decrease in the CFU/g kidney tissue)” value [6] was “** (exhibited a 1.1-2.0 log decrease in CFU/g)”, the EC50 [1, 17] was 10 to 25 µM and the “percent of the starting weight of the infected mice” value [7] was “approximately 100%”. For the same molecule, the “percent survival of infected mice” value [7] was 60%, the “Log Decrease in CFU/g Lung Tissue” value [8] was “** (key: ***: exhibited a 0-1.0 log decrease in the CFU/g of LcrF in lung tissue; **: exhibited a 1.1-2.0 log decrease in the CFU/g of LcrF in lung tissue; --: exhibited no efficacy)” and the EC50 [2, 18] was 10 to 25 µM. The activity at 50 µg/mL [4] was less than 75%.
In the case of `O=[N+]([O-])c1ccc2nc(-c3ccco3)n(O)c2c1` [AU], the “activity against SoxS in vitro in an EMSA” value [9] is reported as “very active” and the “ability to intercalate DNA” value [10] is reported as “not found to intercalate DNA”.
For `CC(=O)c1ccc(/C=C/C(=O)Nc2ccc(-c3nc4ccc([N+](=O)[O-])cc4n3O)cc2)cc1` [AJ, (E)-3-(4-Acetyl-phenyl)-N-[4-(1-hydroxy-6-nitro-H-benzoimidazol-2-yl)-phenyl]-acrylamide], the EC50 [1, 17] was 10 to 25 µM, the EC50 [1, 15] was less than 5 µM and the EC50 [2, 16] was less than 5 µM. For the same molecule, the EC50 [3] was greater than 15.1 µM and the “Cytotoxicity at 50 μg/mL Pseudomonas” value [5] was “** (reduced P. aeruginosa cytotoxicity below 75% of untreated, wild type levels at 50 mg/mL)”.
`CN(C)c1ccc(C(=O)Nc2ccc(-c3nc4ccc([N+](=O)[O-])cc4n3O)cc2)cc1` [AH] showed an EC50 [2, 18] greater than 25 µM, an EC50 ([2]; Table 10, read-out: ExsA EC50) of 1 to 4.9 µM and an EC50 [3] greater than 5 µM. The EC50 [11] was 1 to 4.9 µM, the EC50 [12] was 1 to 4.9 µM and the EC50 [13] was 1 to 4.9 µM. The EC50 ([14]; Table 10, read-out: SoxS EC50) was less than 0.9 µM and the EC50 [14, 19] was less than 0.9 µM.
`O=[N+]([O-])c1ccc2nc(-c3ccc(-c4ccccc4)o3)n(O)c2c1` [BQ] was tested, and the “Efficacy (log10 decrease in the CFU/g kidney tissue)” value [6] was “** (exhibited a 1.1-2.0 log decrease in CFU/g)”, the EC50 ([2]; Table 10, read-out: ExsA EC50) was greater than 5 µM and the “ability to intercalate DNA” value [10] was “not found to intercalate DNA”. The EC50 [3] was greater than 5 µM, the EC50 [11] was greater than 5 µM and the EC50 [12] was greater than 5 µM. It also gave an EC50 [13] greater than 5 µM, an EC50 ([14]; Table 10, read-out: SoxS EC50) of 1 to 4.9 µM and an EC50 [14, 19] greater than 5 µM.
`COc1cc(F)ccc1C(=O)Nc1ccc(-c2nc3ccc([N+](=O)[O-])cc3n2O)cc1` [DE] was tested, and the EC50 [1, 15] was less than 5 µM, the EC50 [2, 16] was less than 5 µM and the EC50 [3] was greater than 15.1 µM. For the same molecule, the activity at 50 µg/mL [4] was 75 to 99% and the “Cytotoxicity at 50 μg/mL Pseudomonas” value [5] was “* (reduced P. aeruginosa cytotoxicity to 99-75% of untreated, wild type levels at 50 mg/mL)”.
`N#Cc1ccc2nc(-c3ccc(NC(=O)/C=C/c4ccc(F)cc4)cc3)n(O)c2c1` [CM] gave an EC50 [1, 15] of 5.1 to 15 µM, an EC50 [2, 16] of less than 5 µM and an EC50 [3] greater than 15.1 µM. For the same molecule, the activity at 50 µg/mL [4] was 75 to 99% and the “Cytotoxicity at 50 μg/mL Pseudomonas” value [5] was “** (reduced P. aeruginosa cytotoxicity below 75% of untreated, wild type levels at 50 mg/mL)”.
With `O=C(Nc1ccc(-c2nc3ccc([N+](=O)[O-])cc3n2O)cc1)c1ccc(F)cc1` [C] the EC50 [1, 17] was 10 to 25 µM, the EC50 [2, 18] was less than 10 µM and the EC50 ([2]; Table 10, read-out: ExsA EC50) was 1 to 4.9 µM. The EC50 [12] was 1 to 4.9 µM, the EC50 [13] was 1 to 4.9 µM and the EC50 ([14]; Table 10, read-out: SoxS EC50) was 1 to 4.9 µM. It also gave an activity at 50 µg/mL [4] of 75 to 99%.
In the case of `NC(=O)c1ccc2nc(-c3ccco3)n(O)c2c1` [BK], the “activity against SoxS in vitro in an EMSA” value [9] is reported as “lacked activity”.
